Legend:
SiaP [1] = biological target: T1, SiaP (Haemophilus influenzae, UniProt P44542); experiment: Biacore surface plasmon resonance, sialic acid binding to SiaP on CM5 sensor chip; parameters: species or system H. influenzae; conditions: for evidence of binding to SiaP: concentrations as high as 100 mM
T1 construct: made in house; host or cells: E. coli (PET15 vector)
Procedure: Biacore® Analysis: Surface plasmon resonance analysis was performed to measure the affinity of binding of sialic acid to SiaP. These studies were performed on a Biacore® instrument using the CM5 sensor chip. SiaP was bound to the chip and increasing concentrations of sialic acid were introduced into the instrument. […] Increasing concentration of sialic acid up to 50 mM show minimal increase in binding. Based on the calculations from this analysis, an association constant of 1.7×10^7 M was calculated.

[2] = tested on: nontypeable Haemophilus influenzae; conditions: sialic acid 10 uM in plates, inhibitor 0.01-10 μM
Procedure: Assay: Sialic acid 10 uM was incorporated into Brain Heart Infusion plates containing NAD and Hemin. The inhibitor was also added at 0.01 μM, 0.1 μM, 1 μM and 10 μM concentrations. Control plates were simultaneously prepared which lacked inhibitor. Results obtained from these plates represented the 100% sialic acid incorporation The inhibition assay was performed by plating 10^7 nontypeable Haemophilus influenzae onto each plate and allowed them to grow overnight in 5% CO2 at 37° C. After 16 hours, organisms were collected from the plate and separately diluted in distilled water to a density of 0.1 absorbance at 600 nm.
Analysis: These organisms were analyzed for sialic acid incorporation onto the surface of the organism. To accomplish this, one hundred microliters was placed in a microtiter well and allowed to dry overnight in a 37° C. dry incubator. The next day the plates were washed in a microtiter washer and 100 microliters of antibody 3F11 in TBS Tween-20 was placed in each well. Monoclonal antibody 3F11 binds the lactosamine epitope to which the sialic acid is attached. If sialic acid is present, 3F11 will not bind. If sialic acid is absent, 3F11 binds. The plates were then allowed to set at 37° C. in a moist chamber for two hours. The plates were washed and 100 microliters of a mouse anti-IgM phosphatase conjugate was added to each well. The plates was allowed to set in a 37° C. incubator for one hour. The plate was washed, and 100 microliters p-nitrophenol-phosphate was added to each well. The plate was allowed to set for 1 hour and the color reaction was read in a microtiter plate reader at an absorbance of 405 nm.

[3] = tested on: influenza A neuraminidase; conditions: literature statement; cited from earlier work
H. influenzae [4] = conditions: Goon et al. PNAS 100, 3089-3094; cited from earlier work
siaT = siaT (Haemophilus influenzae, UniProt P44542); experiment: Biacore analysis of Neu5Ac binding to siaT; parameters: species or system H. influenzae; conditions: for binding to siaP (summary statement): restates the Example 3 binding studies; for binding to siaT: concentrations as high as 200 mM
Source text: In one embodiment, one can use the Biacore® screening method for molecules that bind to SiaT. Briefly, one uses a Biacore® instrument to measure bimolecular binding, establish a high throughput system to search for molecules which bind to SiaT or SiaP. SiaT expressing a His tag is bound to a sensor NTA chip in the Biacore® instrument. The Biacore® instrument measures binding events on the sensor chip surface, so that the interactant attached to the surface determines the specificity of the analysis. Testing the specificity of an interaction involves simply asking whether different molecules can bind to the immobilized interactant. Binding gives an immediate change in the SPR signal, so that it is directly apparent whether an interaction takes place or not. As sample is passed over the sensor surface, the progress of binding directly reflects the rate at which the interaction occurs. Injection of sample is followed by buffer flow during which the response reflects the rate of dissociation of the complex on the surface. Kinetic rate constants for the binding and dissociation can be obtained by fitting the results to mathematical descriptions of interaction models. Binding affinities can be obtained either from rate constant measurements (the dissociation constant KD is the ratio of the rate constants kd/ka for a 1:1 interaction) or by measuring the steady state level of binding as a function of sample concentration. The rate of binding of an interactant to a given surface is a function of the interactant concentration, so that measurements with the Biacore® instrument can be used to determine concentration of a specific substance in pure solution or in complex mixtures. The selectivity, dynamic range and other assay performance characteristics are determined largely by the choice of binding molecule attached to the surface. Thus, one can rapidly screen large number of candidate molecules for binding to the SiaT and develop information about rate of binding and dissociation constants. Molecules that have a high binding affinity and dissociate poorly are examined as candidates for study of inhibition of ^3H-sialic acid uptake by nontypeable H. influenzae.
The inventors performed Biacore® analysis of Neu5Ac binding to siaT (FIG. 19). […] Binding peaked at 22 mM and calculations estimated the kD of siaT for Neu5Ac to be 1.7×10^−8.

H. influenzae [5] = experiment: Inhibition of sialylation of LOS; assay type: cell-based; conditions: found by the inventors
SiaP [6] = biological target: T1, SiaP; experiment: Isothermal titration calorimetry of SiaP with sialic acid; assay type: binding, H. influenzae; conditions: ITC
Procedure: Calorimetry and Dynamic Light Scattering. Isothermal titration calorimetry (ITC) experiments were performed in order to determine the binding affinity of SiaP for sialic acid. […] Dynamic light scattering (DLS) experiments were performed to determine the hydrodynamic radius of SiaP with and without sialic acid. […] This was verified by two types of experiments. In the first experiment, excess sialic acid was incubated with SiaP for several hours before DLS experiments were performed. In the second, DLS was performed on protein taken from the calorimeter following an ITC experiment.

His-tagged siaP = His-tagged siaP (Haemophilus influenzae, UniProt P44542); experiment: Binding of 3H-Neu5Ac to His-tagged siaP bound to a nickel affinity resin; parameters: species or system H. influenzae; conditions: three experiments; controls His-tagged luxS resin and resin without protein
Source text: The inventors also determined whether ^3H-Neu5Ac would bind to His-tagged siaP bound to a nickel affinity resin. […] Two controls are included, the His-tagged luxS protein bound to a nickel affinity resin and nickel affinity with no protein bound to it.

SiaP [7] = biological target: T1, SiaP; experiment: Binding of 3H-labelled sialic acid to SiaP-Sepharose conjugate; parameters: species or system H. influenzae; conditions: LuxS-Sepharose and Sepharose-only controls
Procedure: SiaP binds sialic acid. SiaP was overexpressed in a PET15 vector and purified to homogeneity from E. coli. It was then crosslinked to Sepharose® beads and the ability of the SiaP-Sepharose® conjugate to bind sialic acid was assessed using ^3H-labelled sialic acid. […] Non-specific binding was not observed in this system as evidenced by the LuxS-Sepharose® and Sepharose®-only controls (FIG. 26).

Chain of siaT (P44542 24-329): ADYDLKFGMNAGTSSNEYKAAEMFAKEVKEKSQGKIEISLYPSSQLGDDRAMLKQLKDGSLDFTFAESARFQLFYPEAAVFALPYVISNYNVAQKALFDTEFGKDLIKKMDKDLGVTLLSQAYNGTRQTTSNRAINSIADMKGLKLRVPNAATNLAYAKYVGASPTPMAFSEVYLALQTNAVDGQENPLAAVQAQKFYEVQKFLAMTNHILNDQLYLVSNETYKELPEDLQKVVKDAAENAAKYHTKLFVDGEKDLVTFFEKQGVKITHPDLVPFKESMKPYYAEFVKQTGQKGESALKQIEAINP
T1 sequence (P44542 24-329): as above
Chain of His-tagged siaP (P44542 24-329): as above

CC(=O)N[C@H]1C(O)O[C@H](CO)[C@@H](O)[C@@H]1O (stereo partly drawn) [N-acetylglucosamine]
evidence of binding to SiaP (SiaP [1]): no evidence of binding

CCOC(=O)C1=C[C@@H](OC(CC)CC)[C@H](NC(C)=O)[C@@H](N)C1 [Tamiflu]
effect on Neu5Ac incorporation into H. influenzae [2]: did not have any effect | inhibition of influenza A neuraminidase [3]: potent and specific inhibitors

CC(=O)N[C@H]1[C@H]([C@H](O)[C@H](O)CO)OC(C(=O)O)=C[C@@H]1O [DDNA, N-acetyl-2,3-didehydro-2-deoxyneuraminic acid]
inhibition of influenza A neuraminidase [3]: potent and specific inhibitors

CCCCCCCC(=O)N[C@H]1C([C@H](O)[C@H](O)CO)OC(O)(C(=O)O)C[C@H]1O (stereo partly drawn) [SiaOct]
inhibition of LOS sialylation (H. influenzae [4]): inhibitor of LOS sialylation

N[C@H]1C(O)O[C@H](CO)[C@@H](O)[C@@H]1O (stereo partly drawn) [glucosamine]
evidence of binding to SiaP (SiaP [1]): no evidence of binding

CC(=O)N[C@H]1[C@H]([C@H](O)[C@H](O)CO)OC(C(=O)O)=C[C@@H]1N=C(N)N [Relenza]
effect on Neu5Ac incorporation into H. influenzae [2]: did not have any effect | inhibition of influenza A neuraminidase [3]: potent and specific inhibitors

CC(=O)N[C@H]1[C@H]([C@H](O)[C@H](O)CO)O[C@@](Oc2ccc3c(C)cc(=O)oc3c2)(C(=O)[O-])C[C@@H]1O.O.[Na+] [2′-(4-Methylumbelliferyl)-α-D-N-acetylneuraminic acid sodium salt hydrate]
effect on Neu5Ac incorporation into H. influenzae [2]: did not have any effect

C[C@H](O)[C@@H](O)[C@@H](O)[C@H](O)C=O [fucose]
binding to siaP (summary statement) (siaT): failed to bind

CC(=O)N[C@@H]1C(O)O[C@H](CO)[C@@H](O)[C@@H]1O (stereo partly drawn) [N-acetylmannosamine]
binding to siaT (siaT; Biacore): no binding | binding to siaP (summary statement) (siaT): failed to bind | evidence of binding to SiaP (SiaP [1]): no evidence of binding

O=C[C@H](O)[C@@H](O)[C@@H](O)[C@H](O)CO [galactose]
binding to siaT (siaT; Biacore): no binding | binding to siaP (summary statement) (siaT): failed to bind | evidence of binding to SiaP (SiaP [1]): no evidence of binding

O=C[C@H](O)[C@@H](O)[C@H](O)CO [xylose]
binding to siaT (siaT; Biacore): no binding | binding to siaP (summary statement) (siaT): failed to bind

CC(=O)N[C@H]1[C@H]([C@H](O)[C@H](O)CO)OC(O)(C(=O)O)C(F)[C@@H]1O (stereo partly drawn) [3-fluorosialic acid, 3-fluoro-N-acetylneuraminic acid]
reduction of sialic acid uptake ([2]; NTHi strain 2019, versus no inhibitor): 60% | inhibition of sialylation of LOS (H. influenzae [5]): highly effective | inhibition of influenza A neuraminidase [3]: potent and specific inhibitors

O=C(CO)[C@@H](O)[C@H](O)[C@H](O)CO [fructose]
binding to siaT (siaT; Biacore): no binding

CC(=O)N[C@H]1[C@H]([C@H](O)[C@H](O)CO)OC(O)(C(=O)O)C[C@@H]1O (stereo partly drawn) [Neu5Ac, N-acetylneuraminic acid]
n value calculated from the binding data (SiaP [6]): always less than one | Kd (SiaP [6]; three independent experiments): 130 nM | Neu5Ac concentration at which binding peaked (siaT; Biacore, Neu5Ac 10 to 50 mM): 22 mM | Kd (siaT; Biacore, Neu5Ac 10 to 50 mM, estimated by calculation): 17 nM | binding to siaP (summary statement) (siaT): extremely high affinity | binding of 3H-Neu5Ac to resin-bound protein (His-tagged siaP): bound only to the resin to which siaT was bound | binding of sialic acid by SiaP-Sepharose (SiaP [7]): capable of binding sialic acid | sialic acid concentration up to which association with SiaP increased (SiaP [1]; up to 50 mM minimal further increase): 20 mM

Reference: patent publication US7413729B2, “Sialic acid permease system” (priority 2005, dated 2008)
